In the NIST ThermoML archive (doi:10.1021/acs.jced.5b00051):

Assay: molar heat capacity at constant pressure
Settings: 101.33 kPa, Liquid, Large sample (1 g) DSC

CCOCCOCCO [3,6-dioxa-1-octanol]
Settings | molar heat capacity at constant pressure [J/K/mol]
275.15 K | 296.5
277.15 K | 296.8
279.15 K | 297.2
281.15 K | 297.6
283.15 K | 298
285.15 K | 298.5
287.15 K | 298.9
289.15 K | 299.4
291.15 K | 299.9
293.15 K | 300.4
295.15 K | 300.9
297.15 K | 301.4
298.15 K | 301.7
299.15 K | 301.9
301.15 K | 302.5
303.15 K | 303.1
305.15 K | 303.7
307.15 K | 304.3
309.15 K | 304.9
311.15 K | 305.5
313.15 K | 306.2
315.15 K | 306.9
317.15 K | 307.5
319.15 K | 308.2
321.15 K | 309
323.15 K | 309.7
325.15 K | 310.4
327.15 K | 311.2
329.15 K | 312
331.15 K | 312.8
333.15 K | 313.6
335.15 K | 314.4
337.15 K | 315.2
339.15 K | 316.1
